Patent US20080275134A1, “Methods for Treatment of Retinal Degenerative Disease” (University of Washington, priority 2005, published 2008)

Tests used:
isomerase = target: T1, isomerase (Bos taurus, UniProt Q28175); assay: isomerase reaction: 11-cis-retinol production by RPE microsomes from all-trans-retinol; type: biochemical, bovine
T1 construct: Purified RPE microsomes were the source of the enzymes; from tissue; host or cells: bovine retinal pigment epithelium microsomes
T1 sequence (Q28175 2-533 limits assumed): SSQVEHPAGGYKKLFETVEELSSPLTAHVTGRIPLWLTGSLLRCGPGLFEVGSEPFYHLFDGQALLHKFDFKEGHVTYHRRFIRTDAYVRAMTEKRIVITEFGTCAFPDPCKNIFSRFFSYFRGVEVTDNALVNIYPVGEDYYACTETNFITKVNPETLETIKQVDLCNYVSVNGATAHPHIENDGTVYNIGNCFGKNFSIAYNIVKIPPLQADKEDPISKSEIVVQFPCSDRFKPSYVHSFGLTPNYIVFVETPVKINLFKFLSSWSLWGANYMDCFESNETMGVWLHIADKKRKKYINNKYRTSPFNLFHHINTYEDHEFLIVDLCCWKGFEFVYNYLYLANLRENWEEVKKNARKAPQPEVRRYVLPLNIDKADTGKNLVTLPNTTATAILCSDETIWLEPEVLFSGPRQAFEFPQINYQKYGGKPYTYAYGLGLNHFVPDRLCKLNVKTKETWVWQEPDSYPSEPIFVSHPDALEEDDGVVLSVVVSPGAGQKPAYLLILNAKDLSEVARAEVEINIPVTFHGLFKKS
Experimental: To test if 11-cis-retinylamine (11-cis Ret-NH2) affects isomerization and esterification, an in vitro assay was employed. In this assay both of the all-trans-retinyl esters formed in the reaction catalyzed by LRAT and 11-cis-retinol production by isomerase were measured (6). Purified RPE microsomes were the source of the enzymes, and all-trans-retinol was the substrate. […] Inhibition of isomerization by Ret-NH2 is not due to binding of CRALBP or competition with 11-cis-retinol for binding to CRALBP. […] An increased concentration of all-trans-retinol lowered the level of inhibition, as illustrated in FIG. 2B. […] Dixon's and Lineweaver-Burk plots in the standard assay conditions yielded Ki=0.1 μM for Ret-NH2 when all-trans-retinol (KM=0.3 μM) was assumed to be a substrate. […] This estimated value reflects the very potent nature of the inhibition by 11-cis-Ret-NH2.
Materials—Fresh bovine eyes were obtained from a local slaughterhouse (Schenk Packing Co., Inc., Stanwood, Wash.). Preparation of bovine RPE microsomes was performed according to previously described methods (Stecher et al., J Biol Chem 274:8577-85, 1999). All chemicals were purchased from Sigma-Aldrich (St. Louis, Mo.). 11-cis-Retinal was obtained from Dr. Rosalie Crouch (Charleston, S.C.).
Reaction conditions for isomerase and LRAT reaction—The isomerase reaction was performed essentially as described previously (Stecher et al., J Biol Chem 274:8577-85, 1999). The reaction was carried out in 10 mM BTP buffer, pH 7.5, 1% BSA, containing 1 mM ATP and 6 μM apo-CRALBP. To investigate inhibition properties of Ret-NH2 and its derivatives, RPE microsomes were preincubated for 5 min in 37° C. with the indicated compound in 10 mM BTP buffer, pH 7.5, 1% BSA, 1 mM ATP prior to addition of apo-CRALBP and all-trans-retinol. Ret-NH2 and its derivatives were delivered to the reaction mixture in 1 μl of DMF, and the same volume of DMF was added to the control reaction. Each experiment was performed three times in duplicate. The average values were used and the standard deviations were calculated.

[1] = test system: regeneration of vision chromophore (11-cis-retinal); assay: regeneration of 11-cis-retinal in mouse eyes after gavage and light bleach, HPLC retinoid analysis; type: in vivo
Experimental: Mice were gavaged with all-trains-Ret-NH2, exposed to intense light for 20 min, and then allowed to recover in the dark for 5 hours. The total amount of different forms of retinoids in all experiments was unchanged. […] For this experiment mice were treated with both 9-cis-retinol and all-trans-Ret-NH2, and bleached after 24 hours, and were allowed to recover for 5 hours in the dark. The presence of 9-cis-retinal was confirmed in treated animals (see peaks 4 and 4′ in FIG. 4A bottom panel, corresponding to syn- and anti-9-cis-retinal oximes, respectively). 11-cis-Retinal was not reduced and/or esterified after treatment with Ret-NH2. […] This supports the idea that Ret-NH2 is a specific inhibitor of the isomerization reaction.
A. Chromatographic separation of nonpolar retinoids from WT mouse eyes. Mice were gavaged with all-trans-Ret-NH2 24 hours prior to bleaching for 20 min at 150 cd·m^−2 W in the Ganzfeld chamber. Regeneration of 11-cis-retinal was allowed for 24 hours in the dark, and retinoids were extracted from the eye and separated by normal phase HPLC as described in Materials and Methods. The peaks were identified based on elution time and absorption spectra correspond to the following retinoids: 1, all-trans-retinyl esters; 2,2′, syn- and anti-11-cis-retinal oximes; 3, syn-all-trans-retinal oxime; 4,4′, syn- and anti-9-cis-retinal oximes; 5, all-trans-retinol. B. Changes of 11-cis-retinal oxime levels at increasing doses of all-trans-Ret-NH2 during 5 hours or 24 hours of dark adaptation. Square indicates the level of 11-cis-retinal oximes that was present in mice gavaged with vegetable oil without retinoids just after bleaching, and arrow indicates the increase of visual chromophore during 5 hours of dark adaptation. Triangles correspond to the level of 11-cis-retinal found in the mice gavaged with 50 mg/kg of 13-cis-RA. C and D. Single flash ERG responses of increasing intensity for all-trans-Ret-NH2 treated mice and control mice. Serial responses to increasing flash stimuli were obtained for all-trans-Ret-NH2 treated and control mice for selected intensities (C) and plotted as a function of a-wave and b-wave versus varying light intensities under dark-adapted conditions (D) before bleach and at 5 hours and 24 hours after bleach. The dark-adapted mice were bleached with intense constant illumination (150 cd·m^−2) for 20 min. […] SE bars are shown.
Chromatographic separation of nonpolar retinoids from WT mouse eyes. Mice were gavaged with 100 mg/kg of all-trans-Ret-NH2 24 hours prior to bleaching. Mice were next exposed to 500 cd m^−2 for 48 min bleaching in the Ganzfeld chamber. Regeneration of 11-cis-retinal was allowed for 24 hours in the dark, and retinoids were extracted from the eye and separated by normal phase HPLC as described in Materials and Methods. The peaks identified based on elution time and absorption spectra correspond to the following retinoids: 1, all-trans-retinyl esters; 2,2′, syn- and anti-1-cis-retinal oximes; 3,3′ syn- and anti-all-trans-retinal oximes; 4, all-trans-retinol.
Mice were gavaged with the solution of inhibitor in vegetable oil (control—non-treated, RPN—retinylpalmitamide, RAN—retinylacetamide, Ret—NH2-all-trans-retinylamine), kept in dark for 16 hours, then light stimulated and kept in dark for additional 5 hours before their eyes were analyzed.
Mouse retinoid extraction and analysis—Retinoid analysis was performed under dim red light as described previously (Maeda et al., J. Neurochem 85:944-956, 2003; Van Hooser et al., J Biol Chem 277:19173-82, 2002). Mice were gavaged with retinoids as described previously (Van Hooser et al., J Biol Chem 277:19173-82, 2002).

Q: Which results are given for CC1=C(/C=C/C(C)=C/C=C/C(C)=C/CN)C(C)(C)CCC1 [Ret-NH2, Retinylamine]?
A: Ki (isomerase; Dixon's and Lineweaver-Burk plots, standard assay conditions, all-trans-retinol assumed to be substrate, estimated value): 100 nM; mode of isomerase inhibition (isomerase; initial rate vs concentrations of all-trans-retinol and 11-cis-Ret-NH2): reversible and can be competed out by all-trans-retinol; change in amount of Ret-NH2 between start and end of the assay (HPLC) (isomerase; time course of the in vitro isomerase assay): ≤ 5%; IC50 of chromophore recovery, 5 hours recovery ([1]; 20 min high-intensity light, 5 hours dark): 2 mg/kg; IC50 of chromophore recovery, 24 hours recovery ([1]; 20 min high-intensity light, 24 hours dark): 24 mg/kg; recovery of chromophore after all 11-cis-retinal is photoisomerized ([1]; longer light treatment (100 mg/kg, 500 cd m^-2 for 48 min, 24 hours dark)): completely blocks recovery of chromophore

Q: For CC1=C(/C=C/C(C)=C/C=C/C(C)=C/CN)C(C)(C)CCC1 [all-trans-Ret-NH2, all-trans-retinylamine], which IC50 (isomerase; RPE microsomes, all-trans-retinol substrate, read-out: IC50, inhibition of 11-cis-retinol production) is on record?
A: 500 nM

Q: And the “retinoid levels in the eye without light exposure” value ([1]; 50 mg/kg, not exposed to light, after 30 hours)?
A: normal levels of retinoids

Q: And the “11-cis-retinal in the eye after bleach and dark recovery” value ([1]; gavage, intense light 20 min, 5 hours in the dark)?
A: only a residual amount

Q: And the “levels of all-trans-retinyl esters in the eye” value ([1]; gavage, intense light 20 min, 5 hours in the dark, vs controls)?
A: elevated

Q: What about the “uptake, transport or oxidation of 9-cis-retinol” value ([1]; mice given 9-cis-retinol and all-trans-Ret-NH2, bleached after 24 hours, 5 hours dark) of the same molecule?
A: did not affect
